According to patent US20230407377A1, “CRISPR/CAS SCREENING SYSTEM MATERIALS AND METHODS” (University of Copenhagen, priority 2020, published 2023):

Columns and labels:
MCF10A-BRCA2+/− cells = assay: MUT:WT* ratio of BRCA2 variants in cells cultured without or with PARP inhibitor; format: cell-based, human; conditions: 2 nM Talazoparib until Day 12, ratios normalized to Day 2
Experimental: At Day 2 after transfection, an aliquot of each culture was analysed by PCR amplification of the genomic target site and NGS of the PCR product to determine the ratio of MUT to WT* alleles in the cell population. Thereafter, cells were cultured in the absence or presence of 2 nM Talazoparib (a PARP inhibitor) until Day 12, whereafter the mutation analysis was repeated. Data represent ratios
normalized to the value at Day 2 and are means of 3 independent experiments +/−SD. Two-tailed unpaired t-tests were used to calculate the significance in all cases. NS=not significant. ** indicates p<0.01. **** indicates p<0.0001.
BRCA2 loss-of-function mutations sensitize cells to inhibitors of PARP, which are used in clinical trials/in the clinic as a synthetic lethal personalized therapy for cancer patients with BRCA inactivating mutations. We analysed one neutral BRCA2 mutation (D946V) and two loss-of-function BRCA2 mutations (I2627N, Y2660C) in breast epithelial MCF10A-BRCA2+/− cells cultured in the absence or presence of PARP inhibitor. […] Furthermore, the method will thereby also be useful for the purpose of drug development, drug testing and stratification of cancer patients in clinical trials with new drugs.

MCF10A (ATM+/+) cells = assay: MUT:WT* ratio of ATM loss-of-function variants without or with Talazoparib; format: cell-based, human; conditions: R23STOP, Q218STOP, E365STOP; 2 nM Talazoparib until Day 12
Excerpt: Data represent ratios normalized to the value at Day 2 and show a representative experiment. The figure and results are further described in the Examples.
Cultures of human breast epithelial MCF10A (ATM+/+) cells expressing SpCas9 were transfected with synthetic gRNA/tracrRNA targeting genomic sites in ATM overlapping the sites to be mutated along with an oligonucleotide comprising the mutation of interest (MUT), which was as known loss-of-function variants (R23STOP, Q218STOP or E365STOP), and an oligonucleotide comprising a corresponding synonymous mutation (WT*). At Day 2 after transfection, an aliquot of each culture was analysed by PCR amplification of the genomic target site and NGS of the PCR product to determine the ratio of MUT to WT* alleles in the cell population. Thereafter, cells were cultured in the absence (−) or presence (+) of 2 nM Talazoparib (a PARP inhibitor) until Day 12, where after the mutation analysis was repeated.

[1] = system: H358 cells xenografted into nude mice; assay: H358 xenograft in nude mice treated with vehicle or AMG 510: tumor volume and 12D versus 12C* ratio; format: in vivo; conditions: treated once per day from two weeks after xenografting, versus vehicle
Experimental: (A) A culture of human lung cancer H358 cells was nucleofected with SpCas9 protein and synthetic gRNA/tracrRNA targeting the oncogenic 12C mutation in KRAS present in these cells along with an oligonucleotide comprising the mutation of interest, which was another oncogenic KRAS mutation (12D), and an oligonucleotide comprising a synonymous mutation ([…]). At Day 2 after transfection, an aliquot of the cell culture was analysed by PCR amplification of the genomic target site and NGS of the PCR product to determine the ratio of 12D versus 12C* alleles in the cell population. […] (B) Determination of tumor volumes over time. (C) Representative mice photographed on day 40. […]
A culture of human lung cancer H358 cells was nucleofected with SpCas9 protein and synthetic gRNA/tracrRNA targeting the oncogenic 12C mutation in KRAS present in these cells along with an oligonucleotide comprising the mutation of interest, which was another oncogenic KRAS mutation (12D), and an oligonucleotide comprising a synonymous mutation (12C*). At Day 2 after transfection, an aliquot of the cell culture was analysed by PCR amplification of the genomic target site and NGS of the PCR product to determine the ratio of 12D versus 12C* alleles in the cell population. […] (B) Tumor volumes were determined over time and, (C) representative mice photographed on day 40.

SW620 (MLH1+/+) cells = assay: MUT:WT* ratio of MLH1 loss-of-function variants without or with 6-thioguanine; format: cell-based, human; conditions: E448STOP, Q537STOP; 2 μM 6-thioguanine until Day 11
Excerpt: Data represent ratios normalized to the value at Day 2 and are means of 3 independent experiments +/−SD. Two-tailed paired t-test were used to calculate the significance in all cases. NS=not significant. ** indicates p<0.01. *** indicates p<0.001. The figure and results are further described in the Examples.
Cultures of human colon cancer SW620 (MLH1+/+) cells were nucleofected with SpCas9 protein and synthetic gRNA/tracrRNA targeting genomic sites in MLH1 overlapping the sites to be mutated along with an oligonucleotide comprising the mutation of interest (MUT), which was as a known loss-of-function variant (E448STOP or Q537STOP), and an oligonucleotide comprising a corresponding synonymous mutation (WT*). At Day 2 after nucleofection, an aliquot of the cell culture was analysed by PCR amplification of the genomic target site and NGS of the PCR product to determine the ratio of MUT to WT* alleles in the cell population. Thereafter, cells were split in two cultures, and cultured in the absence (−) or presence (+) of 2 μM 6-thioguanine until Day 11, where after the mutation analysis was repeated for each culture.

Hep3B cells = assay: FGFR4 550M to WT* ratio in cells cultured without or with Fisogatinib; format: cell-based, human; conditions: 0.72 μM Fisogatinib until Day 16; ratios normalized to Day 2
Excerpt: Data represent ratios normalized to the value at Day 2 and are means of 3 independent experiments +/−SD. Two-tailed paired t-tests were used to calculate the significance in all cases. NS=not significant. ** indicates p<0.01. The figure and results are further described in the Examples.
Cultures of human liver cancer Hep3B cells, which harbor FGF19 focal amplification, were nucleofected with SpCas9 protein and synthetic gRNA/tracrRNA targeting a genomic site overlapping the site to be mutated along with an oligonucleotide comprising the mutation of interest (V550M) in the Fisogatinib-binding site of FGFR4 and an oligonucleotide comprising a synonymous mutation (WT*). At Day 2 after nucleofection, an aliquot of the cell culture was analysed by PCR amplification of the genomic target site and NGS of the PCR product to determine the ratio of 550M to WT* alleles in the cell population. Thereafter, cells were split in two cultures, and cultured in the absence (−) or presence (+) of 0.72 μM Fisogatinib until Day 16, whereafter the mutation analysis was repeated on each culture. […] Such applications of the method are important for clinical management as well as for drug development in the pharmaceutical industry.

## Cn1ncnc1[C@H]1c2n[nH]c(=O)c3cc(F)cc(c23)N[C@@H]1c1ccc(F)cc1 [Talazoparib]
MCF10A-BRCA2+/− cells; D946V
  effect on cells with the neutral BRCA2 mutation (MUT:WT* ratio): no effect
MCF10A-BRCA2+/− cells; I2627N, Y2660C
  cell proliferation and/or survival of cells with the loss-of-function BRCA2 mutations: greatly decreased
MCF10A (ATM+/+) cells
  sensitivity of cells with loss-of-function ATM mutations to PARP inhibitor killing: sensitized them to PARP inhibitor killing

## C=CC(=O)N1CCN(c2nc(=O)n(-c3c(C)ccnc3C(C)C)c3nc(-c4c(O)cccc4F)c(F)cc23)[C@@H](C)C1 [AMG 510]
[1]
  bulk tumor size (tumor volumes over time): greatly reduced

## Nc1nc2nc[nH]c2c(=S)[nH]1 [6-thioguanine]
SW620 (MLH1+/+) cells
  ability of MLH1 to elicit apoptosis in response to 6-thioguanine in cells with loss-of-function mutations: disabled

## C=CC(=O)N[C@H]1CCOC[C@H]1Nc1ncc2cc(-c3c(Cl)c(OC)cc(OC)c3Cl)ccc2n1 [Fisogatinib]
Hep3B cells
  selection of cells harboring the FGFR4-V550M mutation relative to WT* (resistance): strongly selected for
